Results published in patent publication US6620938B1, “Compounds that inhibit GRB2-SHC binding and process for preparing same” (Korea Research Institute of Bioscience and Biotechnology, priority 1999, dated 2003).
“And” between values parts separate entries of the source, which are not always exact repeats. Identical values can stand only once.

Key:
[1] = Solubility in solvents (physicochemical characteristics, Table 1)
From the text: Based on the above-mentioned spectral data and physicochemical characteristics shown in Table 1, the structures of Compounds(I), (II) and (III) was unequivocally settled. Compounds(II) and (III) are sclerotiorine and isochromopilone, respectively, which are known compounds, while Compound(I) is a novel compound.

[2] = target: T1, Grb2-Shc binding (GST-Grb2 fusion protein, [3H]propionylated-hShc peptide) (Homo sapiens, UniProt P62993); experiment: Grb2-Shc binding inhibition, scintillation proximity assay; settings: SPA, competition with [3H]propionylated-hShc peptide for GST-Grb2, room temperature 30 minutes, pH 7.4; read-out: concentration required for inhibiting the Grb2-Shc binding by 50% (IC50)
T1 construct: purchased Santa Cruz Biotech Inc
T1 sequence (P62993 whole entry, the tested form may be a part): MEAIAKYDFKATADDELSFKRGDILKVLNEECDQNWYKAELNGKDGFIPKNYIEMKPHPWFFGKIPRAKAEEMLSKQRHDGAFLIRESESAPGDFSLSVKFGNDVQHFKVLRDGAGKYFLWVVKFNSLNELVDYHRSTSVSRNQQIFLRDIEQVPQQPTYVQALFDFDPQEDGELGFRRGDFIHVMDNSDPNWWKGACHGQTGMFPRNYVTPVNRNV
Procedure: The activity of the inventive compound in inhibiting Grb2-Shc binding was determined in accordance with the scintillation proximity assay method by way of measuring the extents of competitive bindings of [^3H]propionylated-hShc peptide and the inventive compound toward Grb2.
Added to a 1.5 ml eppendorf tube were 10 μl of 0.3 μg GST-Grb2 fusion protein(Santa Cruz Biotech Inc.), 10 μl of SPA PVT antibody-binding beads(Amersham Co.), 10 μl of 0.1 μ Ci [^3H]propionylated-hShc peptide(Amersham Co.), 10 μl of 6 μg anti-GST rabbit IgG(Molecular Probes) and 10 μl of a DMSO solution containing each of the compounds obtained in Example 2 and the total volume was adjusted to 200 μl using SH2 buffer solution(20 mM Tris-HCI, 250 mM NaCl and 0.1% cow serum albumin, pH 7.4). The resulting mixture(sample) was reacted at room temperature for 30 minutes. After the completion of the reaction, the Grb2-Shc binding inhibiting activity was determined by examining the extent of comparative binding of [^3H]propionylated-hShc peptides toward Grb2 proteins, expressed by a unit of count per minute(CPM), with a liquid scintillation counter. The same procedure was repeated in the absence of GST-Grb2(blank) or in the absence of any added compounds(control).
The Grb2-Shc binding inhibiting activity was then calculated in accordance with the following equation: [formula]

phospholipase A2 = settings: reported in the literature; cited from earlier work

SMILES	Insoluble [1]	IC50 [2]	phospholipase A2 inhibiting activity (phospholipase A2)	Soluble ([1]; solvents in which the compound is soluble)
CCC(C)/C=C(C)/C=C/c1cc2c(cn1)=C(OC)[C@@](C)(OC(C)=O)C(=O)C=2Cl (stereo partly shown) [Compound(I)]	H2O	~6 µM and 6 µM	–	–
CCC(C)/C=C(C)/C=C/C1=CC2=C(Cl)C(=O)[C@](C)(OC(C)=O)C(=O)C2=CO1 (stereo partly shown) [Compound(II), sclerotiorine]	H2O	~12 µM and 12 µM	phospholipase A2 inhibiting activity	–
CCC(C)/C=C(C)/C=C/C1=CC2=C(Cl)C(=O)[C@](C)(O)C(OC(C)=O)C2CO1 (stereo partly shown) [Compound(III), isochromopilone IV]	–	~11 µM and 11 µM	–	CHCl3, EtOAc, and MeOH
